# Data as given in ChEMBL document CHEMBL5252638, “Novel triphenylphosphonium amphiphilic conjugates of glycerolipid type: synthesis, cytotoxic and antibacterial activity, and targeted cancer cell delivery” (RSC Med Chem, 2023).
# Columns and labels:
# Homo sapiens [1] = species: Homo sapiens; test: Selectivity index, ratio of IC50 for human WI-38 cells to IC50 for human SK-OV-3 cells
# Pseudomonas aeruginosa [2] = test: Antimicrobial activity against Pseudomonas aeruginosa ATCC 9027 by serial microdilution method; assay type: functional
# M-HeLa = test: Cytotoxicity against human HelaM cells assessed as number of viable cells measured after 48 hrs by MTT based colorimetric assay; assay type: functional, cell-based
# MCF7 = test: Cytotoxicity against human MCF7 cells assessed as number of viable cells measured after 48 hrs by MTT based colorimetric assay; assay type: functional, cell-based; details: MCF7, 48 h
# HuTu80 [3] = test: Cytotoxicity against human HuTu80 cells assessed as number of viable cells measured after 48 hrs by MTT based colorimetric assay; assay type: functional, cell-based; details: HuTu80, 48 h
# PANC-1 = test: Cytotoxicity against human PANC-1 cells assessed as number of viable cells measured after 48 hrs by MTT based colorimetric assay; assay type: functional, cell-based; details: PANC-1, 48 h
# A549 = test: Cytotoxicity against human A549 cells assessed as number of viable cells measured after 48 hrs by MTT based colorimetric assay; assay type: functional, cell-based; details: A549, 48 h
# PC-3 = test: Cytotoxicity against human PC-3 cells assessed as number of viable cells measured after 48 hrs by MTT based colorimetric assay; assay type: functional, cell-based; details: PC-3, 48 h
# T98G = test: Cytotoxicity against human T98G cells assessed as number of viable cells measured after 48 hrs by MTT based colorimetric assay; assay type: functional, cell-based
# HepG2 = test: Cytotoxicity against human HepG2 cells assessed as number of viable cells measured after 48 hrs by MTT based colorimetric assay; assay type: functional, cell-based; details: HepG2, 48 h
# SK-OV-3 = test: Cytotoxicity against human SK-OV-3 cells assessed as number of viable cells measured after 48 hrs by MTT based colorimetric assay; assay type: functional, cell-based; details: SK-OV-3, 48 h
# DU-145 = test: Cytotoxicity against human DU-145 cells assessed as number of viable cells measured after 48 hrs by MTT based colorimetric assay; assay type: functional, cell-based; details: DU-145, 48 h
# [4] = Cytotoxicity against human WI-38 cells assessed as number of viable cells measured after 48 hrs by MTT based colorimetric assay; assay type: toxicity, cell-based
# [5] = Cytotoxicity against human Chang liver cells assessed as number of viable cells measured after 48 hrs by MTT based colorimetric assay; assay type: toxicity, cell-based
# [6] = Selectivity index, ratio of IC50 for human WI-38 cells to IC50 for human MCF7 cells; assay type: toxicity; details: WI-38 cells and MCF7 cells, read-out: Ratio IC50
# Homo sapiens [7] = species: Homo sapiens; test: Selectivity index, ratio of IC50 for human WI-38 cells to IC50 for human HuTu80 cells
# Homo sapiens [8] = species: Homo sapiens; test: Selectivity index, ratio of IC50 for human WI-38 cells to IC50 for human PANC-1 cells
# [9] = Selectivity index, ratio of IC50 for human WI-38 cells to IC50 for human PC-3 cells; assay type: toxicity; details: WI-38 cells and PC-3 cells, read-out: Ratio IC50
# [10] = Selectivity index, ratio of IC50 for human WI-38 cells to IC50 for human HepG2 cells; assay type: toxicity; details: WI-38 cells and HepG2 cells, read-out: Ratio IC50
# Homo sapiens [11] = species: Homo sapiens; test: Selectivity index, ratio of IC50 for human WI-38 cells to IC50 for human DU-145 cells
# Staphylococcus aureus [12] = test: Antimicrobial activity against Staphylococcus aureus ATCC 6538 P FDA 209P by serial microdilution method; assay type: functional
# Bacillus cereus [13] = test: Antimicrobial activity against Bacillus cereus ATCC 10702 NCTC 8035 by serial microdilution method; assay type: functional
# Enterococcus faecalis [14] = test: Antimicrobial activity against Enterococcus faecalis ATCC 29212 by serial microdilution method; assay type: functional
# Escherichia coli [15] = test: Antimicrobial activity against Escherichia coli ATCC 25922 by serial microdilution method; assay type: functional
# Staphylococcus aureus [16] = test: Bactericidal against Staphylococcus aureus ATCC 6538 P FDA 209P by serial microdilution method; assay type: functional
# Enterococcus faecalis [17] = test: Bactericidal activity against Enterococcus faecalis ATCC 29212 by serial microdilution method; assay type: functional
# Escherichia coli [18] = test: Bactericidal activity against Escherichia coli ATCC 25922 by serial microdilution method; assay type: functional
# Pseudomonas aeruginosa [19] = test: Bactericidal against Pseudomonas aeruginosa ATCC 9027 by serial microdilution method; assay type: functional
# [20] = Selectivity index, ratio of IC50 for human WI-38 cells to IC50 for human T98G cells; assay type: toxicity; details: WI-38 cells and T98G cells, read-out: Ratio IC50
# HuTu80 [21] = test: Induction of apoptosis in human HuTu80 cells assessed as viable cells at 1 uM incubated for 48 hrs by annexin V FITC/propidium iodide staining based flow cytometry analysis (reference value: 93.71%); assay type: functional; details: read-out: Activity
# HuTu80 [22] = test: Induction of apoptosis in human HuTu80 cells assessed as viable cells at 2 uM incubated for 48 hrs by annexin V FITC/propidium iodide staining based flow cytometry analysis (reference value: 93.71%); assay type: functional; details: read-out: Activity
# HuTu80 [23] = test: Induction of apoptosis in human HuTu80 cells assessed as early apoptotic cells at 1 uM incubated for 48 hrs by annexin V FITC/propidium iodide staining based flow cytometry analysis (reference value: 1.74%); assay type: functional
# HuTu80 [24] = test: Induction of apoptosis in human HuTu80 cells assessed as early apoptotic cells at 2 uM incubated for 48 hrs by annexin V FITC/propidium iodide staining based flow cytometry analysis (reference value: 1.74%); assay type: functional
# HuTu80 [25] = test: Induction of apoptosis in human HuTu80 cells assessed as late apoptotic cells at 1 uM incubated for 48 hrs by annexin V FITC/propidium iodide staining based flow cytometry analysis (reference value: 0.00%); assay type: functional
# HuTu80 [26] = test: Induction of apoptosis in human HuTu80 cells assessed as late apoptotic cells at 2 uM incubated for 48 hrs by annexin V FITC/propidium iodide staining based flow cytometry analysis (reference value: 0.00%); assay type: functional
# HuTu80 [27] = test: Induction of apoptosis in human HuTu80 cells assessed as necrotic cells at 1 uM incubated for 48 hrs by annexin V FITC/propidium iodide staining based flow cytometry analysis (reference value: 4.56%); assay type: functional
# HuTu80 [28] = test: Induction of apoptosis in human HuTu80 cells assessed as necrotic cells at 2 uM incubated for 48 hrs by annexin V FITC/propidium iodide staining based flow cytometry analysis (reference value: 4.56%); assay type: functional
# HuTu80 [29] = test: Induction of cell cycle arrest in human HuTu80 cells assessed as accumulation of cell at G1/G0 phase at 1 uM measured after 48 hrs by propidium iodide staining based analysis (reference value: 72%); assay type: functional
# HuTu80 [30] = test: Induction of cell cycle arrest in human HuTu80 cells assessed as accumulation of cell at G1/G0 phase at 2 uM measured after 48 hrs by propidium iodide staining based analysis (reference value: 72%); assay type: functional
# HuTu80 [31] = test: Induction of cell cycle arrest in human HuTu80 cells assessed as accumulation of cell at G2/M phase at 1 uM measured after 48 hrs by propidium iodide staining based analysis (reference value: 18.7%); assay type: functional
# HuTu80 [32] = test: Induction of cell cycle arrest in human HuTu80 cells assessed as accumulation of cell at G2/M phase at 2 uM measured after 48 hrs by propidium iodide staining based analysis (reference value: 18.7%); assay type: functional
# HuTu80 [33] = test: Induction of cell cycle arrest in human HuTu80 cells assessed as accumulation of cell at S phase at 1 uM measured after 48 hrs by propidium iodide staining based analysis (reference value: 8.1%); assay type: functional
# HuTu80 [34] = test: Induction of cell cycle arrest in human HuTu80 cells assessed as accumulation of cell at S phase at 2 uM measured after 48 hrs by propidium iodide staining based analysis (reference value: 8.1%); assay type: functional
# HuTu80 [35] = test: Induction of ROS production in human HuTu80 cells assessed as increase in fluorescence intensity at 5 uM measured after 48 hrs by flow cytometry based analysis (reference value: 380); assay type: functional
# HuTu80 [36] = test: Induction of ROS production in human HuTu80 cells assessed as increase in fluorescence intensity at 10 uM measured after 48 hrs by flow cytometry based analysis (reference value: 380); assay type: functional
# HuTu80 [37] = test: Induction of mitochondrial membrane potential loss in human HuTu80 cells assessed as J-monomer green fluorescence intensity at 5 uM incubated for 24 hrs by JC10 staining based flow cytometry method (reference value: 5.7%); assay type: functional
# HuTu80 [38] = test: Induction of mitochondrial membrane potential loss in human HuTu80 cells assessed as J-monomer green fluorescence intensity at 10 uM incubated for 24 hrs by JC10 staining based flow cytometry method (reference value: 5.7%); assay type: functional
# HuTu80 [39] = test: Induction of mitochondrial membrane potential loss in human HuTu80 cells assessed as J-aggregates red fluorescence intensity at 5 uM incubated for 24 hrs by JC10 staining based flow cytometry method (reference value: 94.4%); assay type: functional
# HuTu80 [40] = test: Induction of mitochondrial membrane potential loss in human HuTu80 cells assessed as J-aggregates red fluorescence intensity at 10 uM incubated for 24 hrs by JC10 staining based flow cytometry method (reference value: 94.4%); assay type: functional
# Bacillus cereus [41] = test: Bactericidal activity against Bacillus cereus ATCC 10702 NCTC 8035 by serial microdilution method; assay type: functional
# [42] = Selectivity index, ratio of IC50 for human WI-38 cells to IC50 for human A549 cells; assay type: toxicity; details: WI-38 cells and A549 cells, read-out: Ratio IC50
smiles,measurement,setting,value
CC(C)C1=CC2=CC[C@@H]3[C@](C)(CCC[C@@]3(C)C(=O)OCC(O)COC(=O)CCCC[P+](c3ccccc3)(c3ccccc3)c3ccccc3)[C@H]2CC1 (stereo partly specified),Ratio IC50,Homo sapiens [1],1.7
same,MIC,Pseudomonas aeruginosa [2],250 µM
same,IC50,M-HeLa,27.3 µM
same,IC50,MCF7,12.5 µM
same,IC50,HuTu80 [3],2.2 µM
same,IC50,PANC-1,13.1 µM
same,IC50,A549,26.2 µM
same,IC50,PC-3,11 µM
same,IC50,T98G,9.8 µM
same,IC50,HepG2,21.6 µM
same,IC50,SK-OV-3,14.4 µM
same,IC50,DU-145,2.8 µM
same,IC50 at 48 h,[4],24.2 µM
same,IC50 at 48 h,[5],6 µM
same,selectivity ratio,[6],1.9
same,Ratio IC50,Homo sapiens [7],11
same,Ratio IC50,Homo sapiens [8],1.8
same,selectivity ratio,[9],2.2
same,selectivity ratio,[10],1.1
same,Ratio IC50,Homo sapiens [11],8.6
same,MIC,Staphylococcus aureus [12],31.3 µM
same,MIC,Bacillus cereus [13],3.9 µM
same,MIC,Enterococcus faecalis [14],7.8 µM
same,MIC,Escherichia coli [15],250 µM
same,MBC,Staphylococcus aureus [16],250 µM
same,MBC,Enterococcus faecalis [17],250 µM
same,MBC,Escherichia coli [18],500 µM
same,MBC,Pseudomonas aeruginosa [19],500 µM
C=C(C)[C@@H]1CC[C@]2(COC(=O)CCC(=O)OC(COC(=O)CCCCCCC/C=C\CCCCCCCC)COC(=O)CCCC[P+](c3ccccc3)(c3ccccc3)c3ccccc3)CC[C@]3(C)[C@H](CC[C@@H]4[C@@]5(C)CC[C@H](O)C(C)(C)[C@@H]5CC[C@]43C)[C@@H]12.[Br-] (stereo partly specified),IC50,M-HeLa,51 µM
same,IC50,MCF7,16.4 µM
same,IC50,HuTu80 [3],1.7 µM
same,IC50,PANC-1,35.7 µM
same,IC50,A549,54.2 µM
same,IC50,PC-3,32.3 µM
same,IC50,T98G,22 µM
same,IC50,HepG2,60 µM
same,IC50,SK-OV-3,57 µM
same,IC50,DU-145,15.5 µM
same,IC50 at 48 h,[4],36.3 µM
same,IC50 at 48 h,[5],11.2 µM
same,selectivity ratio,[6],2.2
same,Ratio IC50,Homo sapiens [7],21.4
same,selectivity ratio,[9],1.1
same,selectivity ratio,[20],1.7
same,Ratio IC50,Homo sapiens [11],2.3
same,viability at 1 µM,HuTu80 [21],76.1%
same,viability at 2 µM,HuTu80 [22],51%
same,Activity,HuTu80 [23],1.29%
same,Activity,HuTu80 [24],2.5%
same,Activity,HuTu80 [25],4.58%
same,Activity,HuTu80 [26],12%
same,Activity,HuTu80 [27],18.03%
same,Activity,HuTu80 [28],34.5%
same,Activity,HuTu80 [29],84%
same,Activity,HuTu80 [30],87%
same,Activity,HuTu80 [31],2.8%
same,Activity,HuTu80 [32],1.8%
same,Activity,HuTu80 [33],2.8%
same,Activity,HuTu80 [34],1.9%
same,Flu intensity,HuTu80 [35],500
same,Flu intensity,HuTu80 [36],840
same,Activity,HuTu80 [37],15.9%
same,Activity,HuTu80 [38],9.7%
same,Activity,HuTu80 [39],84.2%
same,Activity,HuTu80 [40],90.3%
same,MIC,Staphylococcus aureus [12],31.3 µM
same,MIC,Bacillus cereus [13],15.6 µM
same,MIC,Enterococcus faecalis [14],125 µM
same,MBC,Staphylococcus aureus [16],125 µM
same,MBC,Bacillus cereus [41],125 µM
C=C(C)[C@@H]1CC[C@]2(COCC(O)COC(=O)CCCC[P+](c3ccccc3)(c3ccccc3)c3ccccc3)CC[C@]3(C)[C@H](CC[C@@H]4[C@@]5(C)CC[C@H](O)C(C)(C)[C@@H]5CC[C@]43C)[C@@H]12 (stereo partly specified),IC50,M-HeLa,11.5 µM
same,IC50,MCF7,1.5 µM
same,IC50,HuTu80 [3],0.3 µM
same,IC50,A549,3.1 µM
same,IC50,PC-3,7.9 µM
same,IC50,T98G,4.1 µM
same,IC50 at 48 h,[4],4.7 µM
same,selectivity ratio,[6],3.1
same,Ratio IC50,Homo sapiens [7],15.7
same,selectivity ratio,[42],1.5
same,selectivity ratio,[20],1.1
